Data as given in ChEMBL document CHEMBL4184295, “7α,15-Dihydroxydehydroabietic acid from Pinus koraiensis inhibits the promotion of angiogenesis through downregulation of VEGF, p-Akt and p-ERK in HUVECs” (Bioorg Med Chem Lett, 2018).

How the values were obtained:
HUVEC [1] = assay: Cytotoxicity against HUVEC assessed as reduction in cell viability up to 100 uM after 24 hrs by MTT assay; assay type: cell-based; conditions: human
HUVEC [2] = assay: Antiangiogenic activity against HUVEC assessed as reduction in tube formation at 12.5 uM after 24 hrs by matrigel-based light microscopic analysis relative to control; assay type: functional, Homo sapiens; design: scale not given: the % may be the effect or the level left
HUVEC [3] = assay: Antiangiogenic activity against HUVEC assessed as reduction in tube formation at 100 uM after 24 hrs by matrigel-based light microscopic analysis relative to control; assay type: functional, Homo sapiens; design: scale not given: the % may be the effect or the level left
HUVEC [4] = assay: Inhibition of ERK phosphorylation in HUVEC at 6.25 uM after 24 hrs by Western blot analysis relative to control; assay type: cell-based; conditions: Homo sapiens
HUVEC [5] = assay: Inhibition of ERK phosphorylation in HUVEC at 3.125 uM after 24 hrs by Western blot analysis relative to control; assay type: cell-based; conditions: Homo sapiens
[6] = target: RAC-alpha serine/threonine-protein kinase (Homo sapiens) (UniProt P31749); assay: Inhibition of AKT phosphorylation in HUVEC at 3.125 uM after 24 hrs by Western blot analysis relative to control; assay type: cell-based
Chain of RAC-alpha serine/threonine-protein kinase (Homo sapiens) (P31749 whole entry): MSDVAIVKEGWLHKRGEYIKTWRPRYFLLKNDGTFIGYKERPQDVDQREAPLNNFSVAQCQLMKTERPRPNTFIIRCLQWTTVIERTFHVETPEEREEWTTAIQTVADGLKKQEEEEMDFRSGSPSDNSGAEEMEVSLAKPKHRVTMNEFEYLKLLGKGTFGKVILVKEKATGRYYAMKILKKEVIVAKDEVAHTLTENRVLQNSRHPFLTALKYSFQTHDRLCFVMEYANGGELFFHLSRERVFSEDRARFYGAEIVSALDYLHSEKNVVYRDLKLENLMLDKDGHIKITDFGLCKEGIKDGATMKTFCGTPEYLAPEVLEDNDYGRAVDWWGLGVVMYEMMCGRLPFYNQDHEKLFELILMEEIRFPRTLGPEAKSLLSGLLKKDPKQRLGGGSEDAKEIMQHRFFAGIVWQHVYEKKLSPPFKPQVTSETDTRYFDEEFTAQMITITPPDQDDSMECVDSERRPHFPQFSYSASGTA

HUVEC [7] = assay: Down regulation of VEGF expression in HUVEC at 3.125 uM after 24 hrs by Western blot analysis relative to control; assay type: functional, Homo sapiens
HUVEC [8] = assay: Antiangiogenic activity against HUVEC assessed as reduction in tube formation at 6.25 uM after 24 hrs by matrigel-based light microscopic analysis relative to control; assay type: functional, Homo sapiens; design: scale not given: the % may be the effect or the level left
HUVEC [9] = assay: Down regulation of VEGF expression in HUVEC at 6.25 uM after 24 hrs by Western blot analysis relative to control; assay type: functional, Homo sapiens
[10] = target: RAC-alpha serine/threonine-protein kinase (Homo sapiens) (UniProt P31749); assay: Inhibition of AKT phosphorylation in HUVEC at 6.25 uM after 24 hrs by Western blot analysis relative to control; assay type: cell-based

CC1=CC[C@@H](C(C)(C)O)C[C@@H]1O
Activity (HUVEC [1]): Non-Toxic

O=C(O)c1ccc(O)cc1 [PARABEN]
Activity (HUVEC [1]): Non-Toxic

C=C(C)[C@@H]1CC[C@](C)(O)[C@@H](O)C1
Activity (HUVEC [1]): Toxic

CC(C)(O)c1ccc2c(c1)C(=O)C[C@H]1[C@](C)(C(=O)O)CCC[C@]21C
Activity (HUVEC [1]): Non-Toxic

C=C1CC[C@@H]2[C@](C)(CCC[C@@]2(C)C(=O)O[C@@H]2O[C@H](CO)[C@@H](O)[C@H](O)[C@H]2O)[C@H]1CCC1=CCOC1=O
Activity (HUVEC [1]): Toxic

CC(C)c1ccc2c(c1)CC[C@H]1[C@](C)(C(=O)O)CCC[C@]21C [DEHYDROABIETIC ACID]
Activity (HUVEC [2]): 12.09% | Activity (HUVEC [1]): Toxic

CC(C)(O)c1ccc2c(c1)[C@@H](O)C[C@H]1[C@](C)(C(=O)O)CCC[C@]21C
Activity (HUVEC [3]): 8.95% | Activity (HUVEC [1]): Non-Toxic

CC(C)(O)c1ccc2c(c1)[C@H](O)C[C@H]1[C@](C)(C(=O)O)CCC[C@]21C
fold change (FC) (HUVEC [4]): 0.82 | fold change (FC) (HUVEC [5]): 0.98 | fold change (FC) [6]: 1.1 | fold change (FC) (HUVEC [7]): 0.89 | Activity (HUVEC [1]): Toxic | Activity (HUVEC [8]): 20.53% | fold change (FC) (HUVEC [9]): 0.69 | fold change (FC) [10]: 0.68
